Test results: the NIST ThermoML archive (doi:10.1016/j.jct.2011.09.011)

Assay: excess molar enthalpy (molar enthalpy of mixing); xn = mol fraction of the nth substance listed
Settings: 101 kPa, Liquid, Parr 1455 solution calorimeter

CCCCCCCCCCO [decan-1-ol] + CC#N
Settings	excess molar enthalpy [kJ/mol]
298.15 K, x1 = 0.0436	0.717
298.15 K, x1 = 0.0542	0.863
298.15 K, x1 = 0.0678	1.04
298.15 K, x1 = 0.079	1.17
298.15 K, x1 = 0.0919	1.31
298.15 K, x1 = 0.1077	1.47
298.15 K, x1 = 0.127	1.65
298.15 K, x1 = 0.1509	1.84
298.15 K, x1 = 0.181	2.05
298.15 K, x1 = 0.2197	2.29
298.15 K, x1 = 0.271	2.54
298.15 K, x1 = 0.3415	2.81
298.15 K, x1 = 0.3857	2.92
298.15 K, x1 = 0.4394	3.01
298.15 K, x1 = 0.5058	3.03
298.15 K, x1 = 0.5895	2.9
298.15 K, x1 = 0.6985	2.49
298.15 K, x1 = 0.78	2.02
298.15 K, x1 = 0.8433	1.56
298.15 K, x1 = 0.9159	0.928
303.15 K, x1 = 0.0586	1.03
303.15 K, x1 = 0.0678	1.15
303.15 K, x1 = 0.079	1.28
303.15 K, x1 = 0.0919	1.43
303.15 K, x1 = 0.1077	1.59
303.15 K, x1 = 0.127	1.75
303.15 K, x1 = 0.1509	1.93
303.15 K, x1 = 0.181	2.12
303.15 K, x1 = 0.2197	2.34
303.15 K, x1 = 0.271	2.6
303.15 K, x1 = 0.3415	2.88
303.15 K, x1 = 0.3857	2.98
303.15 K, x1 = 0.4394	3.06
303.15 K, x1 = 0.5058	3.08
303.15 K, x1 = 0.5895	2.98
303.15 K, x1 = 0.6985	2.63
303.15 K, x1 = 0.78	2.14
303.15 K, x1 = 0.8433	1.66
303.15 K, x1 = 0.9159	1.02
308.15 K, x1 = 0.0748	1.17
308.15 K, x1 = 0.1008	1.45
308.15 K, x1 = 0.1409	1.83
308.15 K, x1 = 0.1866	2.19
308.15 K, x1 = 0.2546	2.67
308.15 K, x1 = 0.3186	2.99
308.15 K, x1 = 0.4096	3.32
308.15 K, x1 = 0.4314	3.33
308.15 K, x1 = 0.455	3.32
308.15 K, x1 = 0.4807	3.3
308.15 K, x1 = 0.5088	3.26
308.15 K, x1 = 0.5395	3.21
308.15 K, x1 = 0.5734	3.14
308.15 K, x1 = 0.6109	3.03
308.15 K, x1 = 0.6525	2.87
308.15 K, x1 = 0.6991	2.66
308.15 K, x1 = 0.7515	2.37
308.15 K, x1 = 0.8108	1.97
308.15 K, x1 = 0.8785	1.4
308.15 K, x1 = 0.9566	0.593

CCCCCCCCCO [nonan-1-ol] + CC#N
excess molar enthalpy [kJ/mol]
Settings	298.15 K	303.15 K	308.15 K
x1 = 0.0899	1.06	1.24	1.29
x1 = 0.1141	1.27	1.47	1.52
x1 = 0.1501	1.53	1.76	1.84
x1 = 0.1975	1.81	2.09	2.2
x1 = 0.2673	2.16	2.48	2.62
x1 = 0.3318	2.4	2.72	2.88
x1 = 0.4217	2.62	2.96	3.12
x1 = 0.443	2.64	2.97	3.1
x1 = 0.4659	2.66	2.97	3.09
x1 = 0.4906	2.67	2.95	3.06
x1 = 0.5175	2.67	2.93	3.01
x1 = 0.5468	2.64	2.88	2.95
x1 = 0.5787	2.59	2.81	2.87
x1 = 0.6138	2.51	2.71	2.76
x1 = 0.6524	2.4	2.58	2.62
x1 = 0.695	2.23	2.4	2.44
x1 = 0.7425	2.02	2.15	2.21
x1 = 0.7955	1.73	1.83	1.9
x1 = 0.8552	1.35	1.43	1.49
x1 = 0.9228	0.823	0.878	0.902
